Test results published in patent publication US20250127821A1, “PHARMACEUTICAL COMPOSITION AND COSMETIC COMPOSITION” (I Peace, Inc., priority 2023, published 2025).

Key:
Type in all cases: cell-based
[1] = system: normal human umbilical vein endothelial cells; assay: Prostacyclin production test (6-keto prostaglandin Fla ELISA); conditions: positive control 10 μM, 24 hours
Procedure: Normal human umbilical vein endothelial cells (Lonza, CC2519AS) were seeded into a T-75 flask using medium (EGM-2, Lonza, CC-3162) and cultured in a CO2 incubator until 60% to 80% confluence. The cells were then detached from the T-75 flask using 0.05% trypsin-EDTA and phenol red. The detached cells were seeded into a 96-well plate at 10,000 cells/100 μL/well in medium and cultured in a CO2 incubator. The next day, the medium was replaced with 100 μL of medium containing test substances 1 through 7 at final concentrations of 5% and 20%, and the positive control substance at a final concentration of 10 μM, or medium without test or positive control substances. The cells were then cultured for 24 hours in a CO2 incubator. The culture supernatant was collected, and the amount of 6-keto prostaglandin Fla, a metabolite of prostacyclin, was measured using an ELISA kit (Abcam, ab133023) and a multi-spectral microplate reader (Varioskan Flash, Thermo Fisher Scientific).

[2] = system: human chondrocyte cell line (SW1353); assay: Hyaluronic acid production test (ELISA); conditions: positive control 10 mmol/L
Procedure: Using proliferation medium (DMEM/F-12 supplemented with 10% FBS and 1% penicillin-streptomycin mixture), a human chondrocyte cell line (SW1353, ATCC, HTB-94) was seeded into a T-75 flask and cultured in a CO2 incubator until 60-80% confluency. The cells were then detached from the T-75 flask using 0.25% trypsin-EDTA and phenol red. Subsequently, using the proliferation medium, the human chondrocytes were seeded into a 96-well plate at a density of 10,000 cells/100 μL/well and cultured in a CO2 incubator.
The following day, the medium was replaced with 100 μL of assay medium (DMEM/F-12 supplemented with 1% FBS and 1% penicillin-streptomycin mixture), containing each of test substances 1 through 7 at final concentrations of 5% and 20% or a positive control substance at a final concentration of 10 mmol/L, or assay medium without test substances or positive control. The human chondrocytes were cultured in a CO2 incubator for 24 or 72 hours.
The culture supernatant was collected, and the amount of hyaluronic acid was measured using an ELISA kit (Hyaluronan Quantikine ELISA Kit, R&D Systems) and a multi-spectral microplate reader (Varioskan Flash, Thermo Fisher Scientific).

[3] = system: normal human skeletal muscle myoblasts; assay: Myotube differentiation promotion test (anti-MHC staining, differentiation index); conditions: positive control 50 nmol/L, 3 days
Procedure: Using proliferation medium (SkGM-2, Lonza, CC-3245), normal human skeletal muscle myoblasts (Lonza, CC-2580) were seeded into a T-75 flask and cultured in a CO2 incubator until approximately 60% confluence. The cells were then detached from the T-75 flask using 0.05% trypsin-EDTA and phenol red. The detached cells were seeded into a 96-well plate at 7,500 cells/100 μL/well in proliferation medium and cultured in a CO2 incubator.
The next day, the medium was replaced with 100 μL of differentiation medium (2% horse serum-supplemented DMEM: F12) containing test substances 1 through 7 at final concentrations of 5% and 20% and the positive control substance at a final concentration of 50 nmol/L, or differentiation medium without test or positive control substances. The cells were then cultured for 3 days in a CO2 incubator to induce differentiation of myoblasts into myotubes.
Subsequently, the medium was removed from the wells, and 100 μL of 4% paraformaldehyde at 4° C. was added to each well, followed by incubation at 4° C. for 15 minutes to fix the cells. […]
From the captured images, the number of cell nuclei and the number of nuclei positive for myosin heavy chain were measured, and the differentiation index I (%) was calculated according to formula (1) below. […]

[4] = system: adipocytes differentiated from normal human subcutaneous preadipocytes; assay: Fat-decomposing assay (free glycerol in culture supernatant); conditions: positive control 10 μM, 24 hours
Procedure: Normal human subcutaneous preadipocytes (Lonza, PT-5020) were seeded into a T-75 flask using a proliferation medium (PGM-2, 10% FBS, 2 mM L-glutamine, 50 μg/mL gentamicin, and 37 ng/mL amphotericin B-supplemented PBM, Lonza, PT-8002) and cultured in a CO2 incubator (37° C., 5% CO2, humidified) until they reached 60% to 80% confluence. The cells were then detached using 0.25% trypsin-EDTA and centrifuged. Subsequently, the cells were seeded into a 96-well plate at 10,000 cells/100 μL/well in proliferation medium and incubated in a CO2 incubator. The following day, the medium was replaced with 100 μL of differentiation medium (PGM-2 supplemented with insulin, dexamethasone, indomethacin, and isobutyl-methylxanthine; Lonza, PT-8002), and the cells were cultured for seven days to induce differentiation of preadipocytes into adipocytes. […] Thereafter, the culture supernatant was collected, and the amount of free glycerol in the supernatant was measured using a fat-decomposing assay kit (Cayman, 10009381). […] Specifically, a multi-spectral microplate reader (Varioskan Flash, Thermo Fisher Scientific) was used to measure the absorbance of the supernatant at a wavelength of 540 nm, and the relative concentration of free glycerol was calculated. […]

CCCCC/C=C\C/C=C\C/C=C\C/C=C\CCCC(=O)O [arachidonic acid]
levels of 6-keto prostaglandin Fla compared to the control [1]: significantly higher

CC(=O)N[C@H]1C(O)O[C@H](CO)[C@@H](O)[C@@H]1O (some centres unmarked) [N-acetylglucosamine]
hyaluronic acid production compared to the control ([2]; cultured 24 hours): significantly higher
hyaluronic acid production compared to the control ([2]; cultured 72 hours): significantly higher

insulin
differentiation index to myotubes compared to the control [3]: significantly higher

CC(C)NCC(O)c1ccc(O)c(O)c1 (centres unmarked) [isoproterenol]
amount of fat-decomposition (free glycerol) compared to the control [4]: significantly higher
